Among the data in patent US11505558B1, “Antiviral heterocyclic compounds” (Enanta Pharmaceuticals, Inc., priority 2019, dated 2022) are EC50 values, retold here.

As usually defined, the EC50 is the concentration giving half of the maximal effect.

The test system of this assay is genotype A, "Long" strain RSV. Kind of assay: RSV-A assay (CPE, ATPlite readout in Hep-2 cells). Type of assay: cell-based. The following applies: human respiratory syncytial virus, HEp-2, Hep-2 cells, genotype A "Long" strain RSV, MOI 0.1; read-out: Human RSV-A (“Long” strain) EC50. The procedure, abridged: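 Protection from RSV-induced cytopathic effect, measured as ATPlite luminescence after 5 days, gave EC50 values. Assay used genotype A Long strain at MOI 0.1 on Hep-2 cells seeded at 8,000/well in DMEM growth media with 10% FBS; compounds tested as 2-fold dilutions in duplicate.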
On to `COc1cc(C(=O)NC[C@](O)(c2cc3c(c(-c4ccc(F)cc4)n2)OC[C@]3(C)C(N)=O)C(F)(F)F)cc2ccc(C(F)(F)F)nc12` [Example 224], for which the EC50 was above 0.2 µM.
As for `C[C@]1(C(N)=O)COc2c1cc([C@@](O)(CNC(=O)c1cc(OC3CC3)c3nc(C(F)(F)F)ccc3c1)C(F)(F)F)nc2-c1ccc(F)cc1` [Example 225], the figure is above 0.2 µM; as for `Cc1ccc2cc(C(=O)NC[C@](O)(c3cc4c(c(-c5ccc(F)cc5)n3)OC[C@]4(C)C(N)=O)C(F)(F)F)cc(O)c2n1` [Example 226], below 0.2 µM.
Consider `C[C@]1(C(N)=O)COc2c1cc([C@@](O)(CNC(=O)c1cc(O)c3nc(C(F)(F)F)ccc3c1)C(F)(F)F)nc2-c1ccc(F)cc1` [Example 227], for which the EC50 was above 0.2 µM.
For `C[C@]1(C(N)=O)COc2c1cc([C@@](O)(CNC(=O)c1cc(O)c3ncccc3c1)C(F)(F)F)nc2-c1ccc(F)cc1` [Example 229], the EC50 was above 0.2 µM.
On to `Cc1nnc2ccc(C(=O)NC[C@](O)(c3cc4c(c(-c5ccc(F)cc5)n3)OC[C@]4(C)C(N)=O)C(F)(F)F)cc2c1C` [Example 231], for which the EC50 was above 0.2 µM.
As for `C[C@]1(C(N)=O)COc2c1cc([C@@](O)(CNC(=O)c1ccc3cccnc3c1)C(F)(F)F)nc2-c1ccc(F)cc1` [Example 233], the figure is above 0.2 µM; as for `C[C@]1(C(N)=O)COc2c1cc([C@@](O)(CNC(=O)c1ccc3nccnc3c1)C(F)(F)F)nc2-c1ccc(F)cc1` [Example 234], above 0.2 µM; as for `C[C@]1(C(N)=O)COc2c1cc([C@@](O)(CNC(=O)c1cc3ccccc3cn1)C(F)(F)F)nc2-c1ccc(F)cc1` [Example 236], above 0.2 µM.
For `C[C@]1(C(N)=O)COc2c1cc([C@@](O)(CNC(=O)c1cnc3ccccc3n1)C(F)(F)F)nc2-c1ccc(F)cc1` [Example 237], the EC50 was above 0.2 µM.
Consider `C[C@]1(C(N)=O)COc2c1cc([C@@](O)(CNC(=O)c1ccc3ncccc3n1)C(F)(F)F)nc2-c1ccc(F)cc1` [Example 238], for which the concentration giving a half-maximal response (EC50) was above 0.2 µM.
For the compound `C[C@]1(C(N)=O)COc2c1cc([C@@](O)(CNC(=O)c1cnc3ncccc3c1)C(F)(F)F)nc2-c1ccc(F)cc1` [Example 239], the half-maximal effective concentration (EC50) is below 0.2 µM.
Consider `C[C@]1(C(N)=O)COc2c1cc([C@@](O)(CNC(=O)c1ccc3ncccc3c1Cl)C(F)(F)F)nc2-c1ccc(F)cc1` [Example 240], for which the EC50 is above 0.2 µM.
`C[C@]1(C(N)=O)COc2c1cc([C@@](O)(CNC(=O)c1cc3cccnc3cc1Cl)C(F)(F)F)nc2-c1ccc(F)cc1` [Example 241]: the EC50 is above 0.2 µM.
As for `C[C@]1(C(N)=O)COc2c1cc([C@@](O)(CNC(=O)c1cnc3cccnc3c1)C(F)(F)F)nc2-c1ccc(F)cc1` [Example 242], the figure is above 0.2 µM.
With `C[C@]1(C(N)=O)COc2c1cc([C@@](O)(CNC(=O)c1ccc3ccccc3n1)C(F)(F)F)nc2-c1ccc(F)cc1` [Example 243], the EC50 is above 0.2 µM.
The result for `C[C@]1(C(N)=O)COc2c1cc([C@@](O)(CNC(=O)c1cnc3cnccc3c1)C(F)(F)F)nc2-c1ccc(F)cc1` [Example 244] reads above 0.2 µM.
With `C[C@]1(C(N)=O)COc2c1cc([C@@](O)(CNC(=O)c1ccc3c(Cl)nccc3c1)C(F)(F)F)nc2-c1ccc(F)cc1` [Example 247], the EC50 was below 0.2 µM.
With `C[C@]1(C(N)=O)COc2c1cc([C@@](O)(CNC(=O)c1ccc3ncncc3c1)C(F)(F)F)nc2-c1ccc(F)cc1` [Example 248], the EC50 is below 0.2 µM.
The result for `COc1cc(C(=O)NC[C@](O)(c2cc3c(c(-c4ccc(F)cc4)n2)OC[C@]3(C)C(N)=O)C2CC2)cc2cccnc12` [Example 249] reads below 0.2 µM; that for `Cc1ccnc2c(O)cc(C(=O)NC[C@](O)(c3cc4c(c(-c5ccc(F)cc5)n3)OC[C@]4(C)C(N)=O)C(F)(F)F)cc12` [Example 250], above 0.2 µM; that for `COc1cc(C(=O)NC[C@](O)(c2cc3c(c(-c4ccc(F)cc4)n2)OC[C@]3(C)C(N)=O)C(F)(F)F)cc2c(C)ccnc12` [Example 251], above 0.2 µM.
On to `Cc1cnc2c(O)cc(C(=O)NC[C@](O)(c3cc4c(c(-c5ccc(F)c(Cl)c5)n3)OC[C@]4(C)C(N)=O)C(F)(F)F)cc2c1` [Example 253], for which the concentration giving a half-maximal response (EC50) was below 0.2 µM.
On to `Cc1cnc2c(O)cc(C(=O)NC[C@](O)(c3cc4c(c(-c5ccc(F)cc5)n3)OC[C@]4(C)C(N)=O)C3CC3)cc2c1` [Example 254], for which the half-maximal effective concentration (EC50) was below 0.2 µM.
On to `COc1cc(C(=O)NC[C@](O)(c2cc3c(c(-c4ccc(F)c(Cl)c4)n2)OC[C@]3(C)C(N)=O)C2CC2)cc2cc(C)cnc12` [Example 258], for which the EC50 is below 0.2 µM.
For `COc1cc(C(=O)NC[C@](O)(c2cc3c(c(-c4ccc(C)cc4)n2)OC[C@]3(C)C(N)=O)C(F)(F)F)cc2cc(C)cnc12` [Example 259], the EC50 was below 0.2 µM.
For the compound `COc1cc(C(=O)NC[C@](O)(c2cc3c(c(-c4ccc(Cl)c(F)c4)n2)OC[C@]3(C)C(N)=O)C(F)(F)F)cc2cc(C)cnc12` [Example 260], the EC50 was below 0.2 µM.
Regarding `CCc1cnc2c(O)cc(C(=O)NC[C@](O)(c3cc4c(c(-c5ccc(F)cc5)n3)OC[C@]4(C)C(N)=O)C(F)(F)F)cc2c1` [Example 261], the EC50 was below 0.2 µM.
Take `Cc1cnc2c(OC3CC3)cc(C(=O)NC[C@](O)(c3cc4c(c(-c5ccc(F)cc5)n3)OC[C@]4(C)C(N)=O)C(F)(F)F)cc2c1` [Example 263]: the EC50 is below 0.2 µM.
On to `COc1cc(C(=O)NC[C@](C)(O)c2cc3c(c(-c4ccc(F)cc4)n2)OC[C@]3(C)C(N)=O)ccc1OC[C@@H](C)O` [Example 264], for which the EC50 was below 0.2 µM.
Take `C[C@@H](O)COc1ccc(C(=O)NC[C@](C)(O)c2cc3c(c(-c4ccc(F)cc4)n2)OC[C@]3(C)C(N)=O)cc1OC1CC1` [Example 267]: the EC50 is below 0.2 µM.
For `C[C@]1(C(N)=O)COc2c1cc([C@@](O)(CNC(=O)c1ccc3ccncc3c1)C(F)(F)F)nc2-c1ccc(F)cc1` [Example 268], the 50% effective concentration (EC50) is below 0.2 µM.
Take `CC(C)(O)COc1cc(C(=O)NC[C@](O)(c2cc3c(c(-c4ccc(F)cc4)n2)OC[C@]3(C)C(N)=O)C(F)(F)F)cc2cccnc12` [Example 270]: the EC50 is above 0.2 µM.
Turning to `CCc1ccc2cc(C(=O)NC[C@](O)(c3cc4c(c(-c5ccc(F)cc5)n3)OC[C@]4(C)C(N)=O)C(F)(F)F)cc(O)c2n1` [Example 272], the concentration for a half-maximal effect (EC50) is above 0.2 µM.
As for `CCc1ccc2cc(C(=O)NC[C@](O)(c3cc4c(c(-c5ccc(F)cc5)n3)OC[C@]4(C)C(N)=O)C(F)(F)F)cc(OC)c2n1` [Example 273], the EC50 is below 0.2 µM.
The result for `C[C@]1(C(N)=O)COc2c1cc([C@@](O)(CNC(=O)c1cc(C#N)c3ncccc3c1)C(F)(F)F)nc2-c1ccc(F)cc1` [Example 274] reads below 0.2 µM; that for `CNC(=O)[C@@]1(C)COc2c1cc([C@@](O)(CNC(=O)c1cc(OCC(N)=O)c3ncccc3c1)C(F)(F)F)nc2-c1ccc(F)cc1` [Example 276], below 0.2 µM.
With `C[C@]1(C(N)=O)COc2c1cc([C@@](O)(CNC(=O)c1cc(OCCF)c3ncccc3c1)C(F)(F)F)nc2-c1ccc(F)cc1` [Example 277], the EC50 was below 0.2 µM.
As for `C[C@]1(C(N)=O)COc2c1cc([C@@](O)(CNC(=O)c1cc(OC(F)(F)F)c3ncccc3c1)C(F)(F)F)nc2-c1ccc(F)cc1` [Example 278], the EC50 was below 0.2 µM.
With `C[C@]1(C(N)=O)COc2c1cc([C@@](O)(CNC(=O)c1cc(N)c3ncccc3c1)C(F)(F)F)nc2-c1ccc(F)cc1` [Example 279], the half-maximal effective concentration (EC50) is below 0.2 µM.
